Patent publication US20240306670A1, “BERBERINE ALKALOIDS IN THE PREVENTION AND/OR TREATMENT OF INTESTINAL DISEASE” (priority 2017, published 2024)
Read-outs that look alike come from different tables or passages of the source.

Legend:
[1] = in vivo; cited from earlier work
[2] = system: Necrotic Enteritis strain of C. perfringens; assay type: cell-based, Clostridium perfringens
[3] = in vivo
[4] = system: clinical isolate of C. difficile; test: In vitro MIC and MBC against Clostridium difficile (Example 6); assay type: cell-based
E. coli causing scour = test: In vitro MIC against pig disease strains (Example 5); assay type: cell-based; conditions: all 5 strains of E. coli causing scour
[5] = system: Eimeria species (mainly E. acervulina)
[6] = cited from earlier work
[7] = Feed palatability, feed and water consumption and bird productivity study (Example 2); assay type: in vivo, broiler chickens; conditions: treated birds, in-water days 6-42
Text: A follow-up study to determine the feed palatability, feed and water consumption and bird productivity following incorporation of a single formulation of IRP001 hemisulfate salt (unmasked) when offered to broiler chickens in-feed or in-water. The study explores the optimal treatment regime in terms of treatment start date.
Phase 1: On receipt, two hundred and seventy (270) day-old commercial broiler chickens were allocated sequentially as they are received into sixteen (16) individual floor pens, each of 16 or 17 birds, on Day 0.
Phase 2: On receipt, the ninety (90) day-old commercial broiler chickens were allocated sequentially as they are received into four (4) individual floor pens, each of 22 or 23 birds, on Day 22.
Feed intake, water intake, weight gain and mortality were used as outcome parameters.
Individual daily feed intake and individual daily water intake data by pen and then by treatment group were calculated for Phases 1 and 2 (and for the entire trial for the birds in Group/Pen 2, 15 and 16 that continue through both Phases) using figures for total feed and water provided each day to each pen divided by the number of birds in each pen. Where errors in weighing, feeding/watering or recording (or other unexplained losses of feed and water) had occurred means were adjusted by using the mean value for the same pen on the 1-2 days either side of the apparent error. Similarly, group mean bodyweights were calculated for Phase 1 using total weight/total no. birds for Day 0 and individual weights from Days 7, 14, 21, 28, 35 and 42. Total (individual) feed consumed was calculated per treatment and feed conversion ratios per treatment calculated using the expression: total (individual) feed/total (individual) weight gain.
Individual daily feed intake and individual daily water intake were statistically compared by treatment within each phase and between Pens 2 and 15/16 over both phases using a linear model:—
and Tibco SPOTFIRE S+ 8.2 (2010). ‘Day’ was included in the model to allow for changes over time, ‘Pen’ as each treatment consisted of 2 pens while an interaction term ‘Treatment:Day’ was included to allow for treatment×time effects. Model suitability was confirmed by inspection of residual plots; in all instances the statistical model was appropriate.

[8] = system: Clostridium Perfringens (type A strain EHE-NE36) after Eimeria oocyst challenge; conditions: NE challenged broilers; for median lesion scores: relative to nil-treatment; for small intestinal lesion scores: relative to nil treatment

Compound: COc1ccc2cc3[n+](cc2c1OC)CCc1cc2c(cc1-3)OCO2 [IRP001, berberine]
- carcinogenicity finding [1]: potential carcinogenicity
- MIC ([2]; C. perfringens NE strain, Berberine sulfate (purity 98.0%) as test agent): 125 µg/mL
- inhibition of growth ([2]; C. perfringens, at 62.5 µg/ml): partial inhibition of growth
- adverse reactions / unanticipated events [3]: no adverse reaction or unanticipated event
- MIC ([4]; Clostridioides difficile, C. difficile clinical isolate, Berberine sulfate as test agent, variation between replicates, read-out: MIC): 500 to 1000 µg/mL
- MBC ([4]; Clostridioides difficile, against CD (C. difficile)): 880 to 1000 µg/mL
- MIC ([4]; Clostridioides difficile, against CD (C. difficile), read-out: MIC): 640 to 820 µg/mL

Compound: CN[C@H](CC(C)C)C(=O)N[C@H]1C(=O)N[C@@H](CC(N)=O)C(=O)N[C@H]2C(=O)N[C@H]3C(=O)N[C@H](C(=O)N[C@H](C(=O)O)c4cc(O)cc(O)c4-c4cc3ccc4O)[C@H](O)c3ccc(c(Cl)c3)Oc3cc2cc(c3O[C@@H]2O[C@H](CO)[C@@H](O)[C@H](O)[C@H]2O[C@H]2C[C@](C)(N)[C@H](O)[C@H](C)O2)Oc2ccc(cc2Cl)[C@H]1O [Vancomycin, reference compound]
- MIC [2]: within the expected range
- MIC [4]: within the expected range

Compound: COc1cc2c(cc1OC)-c1cc3ccc(OC)c(OC)c3c[n+]1CC2 [palmatine]
- MIC (E. coli causing scour): 125 µg/mL

Compound: CC[C@@H](C(=O)[C@@H](C)[C@@H](O)[C@H](C)[C@@H]1O[C@@H]([C@@H](CC)C(=O)O)CC[C@@H]1C)[C@H]1O[C@]2(C=C[C@@H](O)[C@]3(CC[C@@](C)([C@H]4CC[C@](O)(CC)[C@H](C)O4)O3)O2)[C@H](C)C[C@@H]1C [salinomycin, Salinomycin, reference compound]
- Intestinal health score: Ballooning (total gut) ([5]; 21 days): 0.10
- Intestinal health score: Contents lower intestine ([5]; 21 days): 0.45
- Intestinal health score: Contents upper intestine ([5]; 21 days): 0.65
- Intestinal health score: Hyperaemia lower intestine ([5]; 21 days): 0.00
- Intestinal health score: Hyperaemia upper intestine ([5]; 21 days): 0.15
- Intestinal health score: Tonus lower intestine ([5]; 21 days): 0.50
- Intestinal health score: Tonus upper intestine ([5]; 21 days): 0.50
- Intestinal health score: Total Intestine (maximum 10) ([5]; 21 days): 3.55
- Intestinal health score: Translucency lower intestine ([5]; 21 days): 0.85
- Intestinal health score: Translucency upper intestine ([5]; 21 days): 0.20^B
- Intestinal health score: Undigested particles in (rectum) ([5]; 21 days): 0.15^B
- Intestinal health score: Ballooning (total gut) ([5]; 28 days): 0.80
- Intestinal health score: Contents lower intestine ([5]; 28 days): 0.00
- Intestinal health score: Contents upper intestine ([5]; 28 days): 1.00
- Intestinal health score: Hyperaemia lower intestine ([5]; 28 days): 0.20
- Intestinal health score: Hyperaemia upper intestine ([5]; 28 days): 0.80
- Intestinal health score: Tonus lower intestine ([5]; 28 days): 0.60
- Intestinal health score: Tonus upper intestine ([5]; 28 days): 0.80
- Intestinal health score: Total Intestine (maximum 10) ([5]; 28 days): 5.20
- Intestinal health score: Translucency lower intestine ([5]; 28 days): 0.20
- Intestinal health score: Translucency upper intestine ([5]; 28 days): 0.40
- Intestinal health score: Undigested particles in (rectum) ([5]; 28 days): 0.40
- FCR 0-14 corrected for mortality ([5]; in vivo): 1.113
- FCR 0-21 corrected for mortality ([5]; in vivo): 1.238
- FCR 0-28 corrected for mortality ([5]; in vivo): 1.470
- FCR 0-42 corrected for mortality ([5]; in vivo): 1.546^BC
- Faecal oocyst count, Mean ([5]; in vivo): 72,046 Oocyst/g
- Feed per bird over days 0-14 ([5]; in vivo): 497^AB g/bird
- Feed per bird over days 0-21 ([5]; in vivo): 1193^B g/bird
- Feed per bird over days 0-28 ([5]; in vivo): 2074 g/bird
- Feed per bird over days 0-42 ([5]; in vivo): 4298 g/bird
- Mean Coccidiosis Lesion Score (maximum 4) Caeca ([5]; in vivo): 0.00
- Mean Coccidiosis Lesion Score (maximum 4) Duodenum ([5]; in vivo): 1.35^ABC
- Mean Coccidiosis Lesion Score (maximum 4) Ileum ([5]; in vivo): 0.00
- Mean Coccidiosis Lesion Score (maximum 4) Jejunum ([5]; in vivo): 0.40^B
- Mean Coccidiosis Lesion Score Total ([5]; in vivo): 1.75^B
- Mean Weight Gain over days 0-7 ([5]; in vivo): 116 gm
- Mean Weight Gain over days 8-14 ([5]; in vivo): 330^BC gm
- Mean Weight Gain over days 15-21 ([5]; in vivo): 517^A gm
- Mean Weight Gain over days 22-28 ([5]; in vivo): 645 gm
- Mean Weight Gain over days 29-42 ([5]; in vivo): 1384 gm
- Mean live weight at 0 days ([5]; in vivo): 41 gm
- Mean live weight at 7 days ([5]; in vivo): 157 gm
- Mean live weight at 14 days ([5]; in vivo): 446^B gm
- Mean live weight at 21 days ([5]; in vivo): 963^AB gm
- Mean live weight at 28 days ([5]; in vivo): 1608^A gm
- Mean live weight at 42 days ([5]; in vivo): 2991^A gm
- growth rate ([5]; in vivo): statistically similar to the control group

Compound: berberine hemisulfate [IRP001 sulfate]
- solubility ([6]; ethanol): slightly soluble
- solubility ([6]; water): about 30 parts water
- FCR (feed conversion ratio) [7]: 1.6 kg feed: 1 kg gain
- weight gained [7]: 2.35 kg
- median lesion scores ([8]; 0.1 g/L in-water): no reduction in median lesion scores
- Mortalities prior to autopsy ([8]; 0.1 g/L in-water, vs nil-treatment): not significantly different
- median lesion scores ([8]; 0.2 g/kg in-feed): no reduction in median lesion scores
- Mortalities prior to autopsy ([8]; 0.2 g/kg in-feed, vs nil-treatment): not significantly different
- small intestinal lesion scores ([8]; 1.0 g/L in-water): substantial reduction in small intestinal lesion scores
- Mortalities prior to autopsy ([8]; 1.0 g/L in-water, relative to nil-treatment and low-dose groups): significant reduction in mortalities
- small intestinal lesion scores ([8]; 2.0 g/kg in-feed): substantial reduction in small intestinal lesion scores
- Mortalities prior to autopsy ([8]; 2.0 g/kg in-feed, relative to nil-treatment and low-dose groups): significant reduction in mortalities
